# In US4593093A, “Acyl derivatives” (priority 1980, dated 1986):
# Where a name gives a salt, the structure may show the parent alone. Read-outs that look alike come from different tables or passages of the source.
# Legend:
# Escherichia coli [1] = test: Activity in vitro: minimum inhibitory concentration; type: cell-based
# Proteus mirabilis = test: as above; type: cell-based
# Proteus morganii = test: as above; type: cell-based; conditions: Morganella morganii
# Proteus rettgeri = test: as above; type: cell-based; conditions: Providencia rettgeri
# Proteus inconstans = test: as above; type: cell-based; conditions: Providencia alcalifaciens
# Klebsiella pseumoniae = test: as above; type: cell-based
# Serratia marcescens [2] = test: as above; type: cell-based
# Enterobacter cloacae [3] = test: as above; type: cell-based
# Enterobacter aerogenes = test: as above; type: cell-based; conditions: Klebsiella aerogenes
# Citrobacter freundii = test: as above; type: cell-based
# Pseudomonas aeruginosa [4] = test: as above; type: cell-based
# Staphylococcus aureus = test: as above; type: cell-based
# Staphylococcus epidermis = test: as above; type: cell-based
# Streptococcus faecalis = test: as above; type: cell-based; conditions: Enterococcus faecalis
# Streptococcus pyogenes [5] = test: as above; type: cell-based
# Streptococcus pneumoniae = test: as above; type: cell-based
# Streptococcus viridans = test: as above; type: cell-based
# Enterobacter cloacae [6] = test: Activity in vivo: survival of intraperitoneally infected mice; conditions: sc, 96 h; mice infected i.p. with Enterobacter cloacae; s.c. twice, 1 h and 3 h after infection; survival on 4th day; read-out: CD50 (dosage at which 50% of the animals survive)
# Protocol: (§1) Groups of 5 mice are infected intraperitoneally with an aqueous suspension of various pathogens. The test substance in physiological sodium chloride solution is administered subcutaneously twice, i.e. 1 hour and 3 hours after the infection. The number of surviving animals is determined on the 4th day. Various dosages are administered and that dosage at which 50% of the experimental animals survive (CD50, mg/kg) is determined by interpolation.
# Escherichia coli [7] = test: as above; conditions: sc, 96 h; mice infected i.p. with Escherichia coli; s.c. twice, 1 h and 3 h after infection; survival on 4th day; read-out: CD50 (dosage at which 50% of the animals survive)
# Protocol: as §1
# Haemophilus influenzae = test: as above; conditions: sc, 96 h; mice infected i.p. with Haemophilus influenzae; s.c. twice, 1 h and 3 h after infection; survival on 4th day; read-out: CD50 (dosage at which 50% of the animals survive)
# Protocol: as §1
# Serratia marcescens [8] = test: as above; conditions: sc, 96 h, 1 h and 3 h after infection, survival on 4th day, read-out: CD50 (dosage at which 50% of the animals survive)
# Protocol: as §1
# Streptococcus pyogenes [9] = test: as above; conditions: sc, 96 h; mice infected i.p. with Streptococcus pyogenes; s.c. twice, 1 h and 3 h after infection; survival on 4th day; read-out: CD50 (dosage at which 50% of the animals survive)
# Protocol: as §1
# Pseudomonas aeruginosa [10] = test: as above; conditions: sc, 96 h; mice infected i.p. with Pseudomonas aeruginosa; s.c. three times, 1 h, 3 h and 5 h after infection; survival on 4th day; read-out: CD50 (dosage at which 50% of the animals survive)
# Protocol: as §1
# *Administered subcutaneously three times: 1 hour, 3 hours and 5 hours
# Toxicity, LD50 = conditions: in vivo
# Proteus vulgaris = test: Activity in vitro: minimum inhibitory concentration; type: cell-based
# [11] = Enterobacter aerogenes strain 1
# [12] = Enterobacter aerogenes strain 2
# [13] = Pseudomonas aeruginosa strain 1
# [14] = Pseudomonas aeruginosa strain 2
# [15] = Pseudomonas aeruginosa strain 3
# [16] = Streptococcus faecalis strain 1
# [17] = Streptococcus faecalis strain 2
# [18] = Streptococcus pyogenes strain 1, read-out: Minimum inhibitory concentration
# [19] = mice infected i.p. with Serratia marcescens strain 1, s.c. twice
structure (smiles),measurement,setting,value
"CO/N=C(\C(=O)N[C@@H]1C(=O)N2C(C(=O)O)=C(C)CS[C@H]12)c1c[se]c(N)n1 [Product F, (6R, 7R)-7-[2-(2-amino-4-selenazolyl)-2-[(Z)-methoxyimino]-acetamido]-3-methyl-3-oxo-5-thia-1-azabicyclo[4.2.0]oct-2-ene-2-carboxylic acid sodium salt]",MIC,Escherichia coli [1]; Escherichia coli strain 1,0.8 µg/mL
same,MIC,Escherichia coli [1]; Escherichia coli strain 2,0.05 µg/mL
same,MIC,Escherichia coli [1]; Escherichia coli strain 3,12.5 µg/mL
same,MIC,Escherichia coli [1]; Escherichia coli strain 4,100 µg/mL
same,MIC,Escherichia coli [1]; Escherichia coli strain 5,3.1 µg/mL
same,MIC,Proteus mirabilis; Proteus mirabilis strain 3,0.1 µg/mL
same,MIC,Proteus mirabilis; Proteus mirabilis strain 4,0.8 µg/mL
same,MIC,Proteus mirabilis; Proteus mirabilis strain 5,0.4 µg/mL
same,MIC,Proteus morganii,50 µg/mL
same,MIC,Proteus rettgeri,0.1 µg/mL
same,MIC,Proteus inconstans,≤ 0.025 µg/mL
same,MIC,Klebsiella pseumoniae; Klebsiella pseumoniae strain 1,0.2 µg/mL
same,MIC,Klebsiella pseumoniae; Klebsiella pseumoniae strain 2,0.05 µg/mL
same,MIC,Klebsiella pseumoniae; Klebsiella pseumoniae strain 3,0.05 µg/mL
same,MIC,Serratia marcescens [2]; Serratia marcescens strain 1,3.1 µg/mL
same,MIC,Serratia marcescens [2]; Serratia marcescens strain 2,6.3 µg/mL
same,MIC,Serratia marcescens [2]; Serratia marcescens strain 3,0.4 µg/mL
same,MIC,Enterobacter cloacae [3]; Enterobacter cloacae strain 1,> 200 µg/mL
same,MIC,Enterobacter cloacae [3]; Enterobacter cloacae strain 2,25 µg/mL
same,MIC,Enterobacter cloacae [3]; Enterobacter cloacae strain 3,> 200 µg/mL
same,MIC,Enterobacter aerogenes; [11],0.2 µg/mL
same,MIC,Enterobacter aerogenes; [12],0.2 µg/mL
same,MIC,Citrobacter freundii; Citrobacter freundii strain 1,200 µg/mL
same,MIC,Citrobacter freundii; Citrobacter freundii strain 2,1.6 µg/mL
same,MIC,Pseudomonas aeruginosa [4]; [13],> 200 µg/mL
same,MIC,Pseudomonas aeruginosa [4]; [14],> 200 µg/mL
same,MIC,Pseudomonas aeruginosa [4]; [15],200 µg/mL
same,MIC,Staphylococcus aureus; Staphylococcus aureus strain 1,50 µg/mL
same,MIC,Staphylococcus aureus; Staphylococcus aureus strain 2,100 µg/mL
same,MIC,Staphylococcus aureus; Staphylococcus aureus strain 3,50 µg/mL
same,MIC,Staphylococcus aureus; Staphylococcus aureus strain 4,100 µg/mL
same,MIC,Staphylococcus epidermis,100 µg/mL
same,MIC,Streptococcus faecalis; [16],> 200 µg/mL
same,MIC,Streptococcus faecalis; [17],> 200 µg/mL
same,MIC,Streptococcus pyogenes [5]; [18],3.1 µg/mL
same,MIC,"Streptococcus pyogenes [5]; Streptococcus pyogenes strain 2, read-out: Minimum inhibitory concentration",0.05 µg/mL
same,MIC,Streptococcus pneumoniae,12.5 µg/mL
same,MIC,Streptococcus viridans,12.5 µg/mL
same,ED50,Enterobacter cloacae [6],> 25 mg/kg
same,ED50,Escherichia coli [7],0.06 mg/kg
same,ED50,Haemophilus influenzae,4 mg/kg
same,ED50,Serratia marcescens [8]; [19],0.59 mg/kg
same,ED50,"Serratia marcescens [8]; mice infected i.p. with Serratia marcescens strain 2, s.c. twice",5.1 mg/kg
same,ED50,Streptococcus pyogenes [9],< 0.05 mg/kg
same,ED50,Pseudomonas aeruginosa [10],> 200 mg/kg
same,LD50,"Toxicity, LD50; po",> 5000 mg/kg
same,LD50,"Toxicity, LD50; sc",> 4000 mg/kg
"CO/N=C(\C(=O)N[C@@H]1C(=O)N2C(C(=O)[O-])=C(CSc3n[nH]c(=O)c(=O)n3C)CS[C@H]12)c1c[se]c(N)n1.[Na+] [Product G, (6R, 7R)-7-[2-(2-amino-4-selenazolyl)-2-[(Z)-methoxyimino]-acetamido]-8-oxo-3-[[(1,4,5,6-tetrahydro-4-methyl-5,6-dioxo-as-triazin-3-yl)thio]methyl]-5-thia-1-azabicyclo[4.2.0]oct-2-ene-2-carboxylic acid sodium salt]",MIC,Escherichia coli [1]; Escherichia coli strain 1,0.05 µg/mL
same,MIC,Escherichia coli [1]; Escherichia coli strain 2,0.012 µg/mL
same,MIC,Escherichia coli [1]; Escherichia coli strain 3,0.2 µg/mL
same,MIC,Escherichia coli [1]; Escherichia coli strain 4,0.2 µg/mL
same,MIC,Escherichia coli [1]; Escherichia coli strain 5,0.2 µg/mL
same,MIC,Proteus mirabilis; Proteus mirabilis strain 3,0.4 µg/mL
same,MIC,Proteus mirabilis; Proteus mirabilis strain 4,0.025 µg/mL
same,MIC,Proteus mirabilis; Proteus mirabilis strain 5,0.025 µg/mL
same,MIC,Proteus morganii,0.05 µg/mL
same,MIC,Proteus rettgeri,0.05 µg/mL
same,MIC,Proteus inconstans,0.006 µg/mL
same,MIC,Klebsiella pseumoniae; Klebsiella pseumoniae strain 1,0.1 µg/mL
same,MIC,Klebsiella pseumoniae; Klebsiella pseumoniae strain 2,0.025 µg/mL
same,MIC,Klebsiella pseumoniae; Klebsiella pseumoniae strain 3,0.05 µg/mL
same,MIC,Serratia marcescens [2]; Serratia marcescens strain 1,0.2 µg/mL
same,MIC,Serratia marcescens [2]; Serratia marcescens strain 2,0.4 µg/mL
same,MIC,Serratia marcescens [2]; Serratia marcescens strain 3,0.1 µg/mL
same,MIC,Enterobacter cloacae [3]; Enterobacter cloacae strain 1,> 100 µg/mL
same,MIC,Enterobacter cloacae [3]; Enterobacter cloacae strain 2,0.8 µg/mL
same,MIC,Enterobacter cloacae [3]; Enterobacter cloacae strain 3,50 µg/mL
same,MIC,Enterobacter aerogenes; [11],0.1 µg/mL
same,MIC,Enterobacter aerogenes; [12],0.1 µg/mL
same,MIC,Citrobacter freundii; Citrobacter freundii strain 1,1.6 µg/mL
same,MIC,Citrobacter freundii; Citrobacter freundii strain 2,0.1 µg/mL
same,MIC,Pseudomonas aeruginosa [4]; [13],50 µg/mL
same,MIC,Pseudomonas aeruginosa [4]; [14],50 µg/mL
same,MIC,Pseudomonas aeruginosa [4]; [15],25 µg/mL
same,MIC,Staphylococcus aureus; Staphylococcus aureus strain 1,0.4 µg/mL
same,MIC,Staphylococcus aureus; Staphylococcus aureus strain 2,1.6 µg/mL
same,MIC,Staphylococcus aureus; Staphylococcus aureus strain 3,0.8 µg/mL
same,MIC,Staphylococcus aureus; Staphylococcus aureus strain 4,0.8 µg/mL
same,MIC,Staphylococcus epidermis,0.8 µg/mL
same,MIC,Streptococcus faecalis; [16],25 µg/mL
same,MIC,Streptococcus faecalis; [17],50 µg/mL
same,MIC,Streptococcus pyogenes [5]; [18],0.05 µg/mL
same,MIC,Streptococcus pneumoniae,0.1 µg/mL
same,MIC,Streptococcus viridans,0.8 µg/mL
same,ED50,Enterobacter cloacae [6],9.2 mg/kg
same,ED50,Escherichia coli [7],< 0.003 mg/kg
same,ED50,Haemophilus influenzae,0.25 mg/kg
same,ED50,Serratia marcescens [8]; [19],0.2 mg/kg
same,ED50,Streptococcus pyogenes [9],0.02 mg/kg
same,ED50,Pseudomonas aeruginosa [10],> 200 mg/kg
same,LD50,"Toxicity, LD50; po",> 5000 mg/kg
same,LD50,"Toxicity, LD50; sc",> 4000 mg/kg
"CO/N=C(\C(=O)N[C@@H]1C(=O)N2C(C(=O)O)=C(COC(C)=O)CS[C@H]12)c1c[se]c(N)n1 [Product D, (6R, 7R)-3-(acetoxymethyl)-7-[2-(2-amino-4-selenazolyl)-2-[(Z)-methoxyimino]-acetamido]-8-oxo-5-thia-1-azabicyclo[4.2.0]oct-2-ene-2-carboxylic acid disodium salt]",MIC,Escherichia coli [1]; Escherichia coli strain 1,0.1 µg/mL
same,MIC,Escherichia coli [1]; Escherichia coli strain 2,0.025 µg/mL
same,MIC,Proteus mirabilis; Proteus mirabilis strain 1,0.025 µg/mL
same,MIC,Proteus mirabilis; Proteus mirabilis strain 2,0.05 µg/mL
same,MIC,Proteus morganii,0.39 µg/mL
same,MIC,Proteus vulgaris,0.78 µg/mL
same,MIC,Klebsiella pseumoniae; Klebsiella pseumoniae strain 1,0.2 µg/mL
same,MIC,Klebsiella pseumoniae; Klebsiella pseumoniae strain 2,0.025 µg/mL
same,MIC,Serratia marcescens [2]; Serratia marcescens strain 1,0.8 µg/mL
same,MIC,Serratia marcescens [2]; Serratia marcescens strain 2,0.8 µg/mL
same,MIC,Enterobacter cloacae [3]; Enterobacter cloacae strain 1,> 100 µg/mL
same,MIC,Enterobacter cloacae [3]; Enterobacter cloacae strain 2,3.1 µg/mL
same,MIC,Citrobacter freundii; Citrobacter freundii strain 1,6.3 µg/mL
same,MIC,Pseudomonas aeruginosa [4]; [13],12.5 µg/mL
same,MIC,Pseudomonas aeruginosa [4]; [14],12.5 µg/mL
same,MIC,Pseudomonas aeruginosa [4]; [15],3.1 µg/mL
same,MIC,Staphylococcus aureus; Staphylococcus aureus strain 1,0.8 µg/mL
same,MIC,Staphylococcus aureus; Staphylococcus aureus strain 2,3.1 µg/mL
same,MIC,Streptococcus pyogenes [5]; [18],0.05 µg/mL
same,ED50,Escherichia coli [7],< 0.01 mg/kg
same,ED50,Serratia marcescens [8]; [19],0.14 mg/kg
same,ED50,Streptococcus pyogenes [9],0.05 mg/kg
same,ED50,Pseudomonas aeruginosa [10],35 mg/kg
same,LD50,"Toxicity, LD50; po",> 5000 mg/kg
same,LD50,"Toxicity, LD50; sc",> 4000 mg/kg
